Where “and” joins values, the source holds several entries; their conditions need not be identical. Identical values can stand only once.
Experiments:
MRSA USA300 = test: Neutrophil bacterial co-culture (BKA) assay, MRSA USA300; type: cell-based, Staphylococcus aureus; details: 2 hours
Experimental: The “MRSA assay” is carried out as follows: • a. admixing 100 μl of a 1×10^7 CFU/ml solution of MRSA strain USA300 in RPMI 1640 with 100 μl of a solution containing 1×10^7 granulocytes/ml; • b. incubating the admixture at 37° C. under shaking at 120 rpm; • c. taking a sample at 2 hours (diluting in sterile RPMI as needed) and plating on Tryptic Soy Agar; • d. incubating the plated sample at 37° C. for 24 hours; • e. counting the bacterial colonies; and • f. quantifying the total CFU content; and • g. calculating the % of MRSA cells killed based on the CFU content in steps a. and f using the formula ((CFU contentno effector−CFU contenteffector)/CFU contentno effector)×100.
(§1) 24 hours prior to use, overnight cultures (ONCs) of all strains (P. aeruginosa: multidrug resistant Cystic Fibrosis isolate RP73 (Di Lorenzo et al (2015), Mol. Immunol., 63, 166-175); MRSA: Community acquired strain USA300 (Diep et al (2006), Lancet, 367, 731-739)) were prepared by inoculating 20 ml tryptic soy broth (3% w/v TSB in deionised water) with 2 stock cryobeads for 24 hours at 37° C., under shaking at 120 rpm (Sciquip mini incu shake). After incubation, ONCs were centrifuged at 2,800 g for 20 minutes at 4° C. The pellet was then resuspended in 10 ml Roswell Park Memorial Institute (RPMI) 1640 medium (commercially available from Sigma-Aldrich, UK). Optical density readings were then taken for all strains and diluted in RPMI 1640 to an OD of 0.015, equivalent of 1×10^7 cfu/ml.
Bacterial cultures were prepared as described above. […] Post incubation, bacterial colonies were manually counted and the total cfu content quantified.
(§2) To validate an in vitro model of neutrophil bacterial killing activity (BKA) assay, increasing concentrations of neutrophils (1×10^5, 5×10^5 and 1×10^6 neutrophils per sample) were incubated with 1×10^6 cfu/ml of the P. aeruginosa strain RP73 under suspension. […] Post incubation, bacterial colonies were manually counted and the total cfu content quantified.

P. aeruginosa RP73 = test: Neutrophil bacterial co-culture (BKA) assay, P. aeruginosa RP73; type: cell-based; details: 2 hours
Experimental: as §1
Bacterial cultures were prepared as described above. 100 μl of 1×10^7 cfu/ml bacterial strains were added to either 100 μl RPMI 1640, 100 μl 1×10^7/ml neutrophils or increasing concentrations of Tobramycin (for P. aeruginosa) or Vancomycin (for MRSA) (1, 10, 100 μg/ml). These cultures were then incubated at 37° C., under shaking at 120 rpm for up to 24 hours. At 2, 6 and 24 hours, 20 μl aliquots of each sample were diluted in sterile RPMI at 1/10, 1/100, 1/1000, 1/10000, 1/100000 and 1/1000000 and plated on Tryptic Soy Agar (TSA) and incubated at 37° C. for 24 hours. Post incubation, bacterial colonies were manually counted and the total cfu content quantified.
as §2, with “suspension. These neutrophil/bacterial cultures were then incubated for 2 hours at 37° C. under 120 rpm of shaking.” for “suspension.”

Compound	Bacterial Killing (%) (MRSA USA300; antibiotic 10 μg/ml)	Bacterial Killing (%) (P. aeruginosa RP73; antibiotic 1 μg/ml)	Bacterial Killing (%) (P. aeruginosa RP73; antibiotic 10 μg/ml)	Bacterial Killing (%) (P. aeruginosa RP73; antibiotic 100 μg/ml)	Bacterial Killing (%) (MRSA USA300; antibiotic 1 μg/ml)	Bacterial Killing (%) (MRSA USA300; antibiotic 100 μg/ml)
NC[C@H]1O[C@H](O[C@H]2[C@H](O)[C@@H](O[C@H]3O[C@H](CO)[C@@H](O)[C@H](N)[C@H]3O)[C@H](N)C[C@@H]2N)[C@H](N)C[C@@H]1O [Tobramycin]	25.05±6.13%	6.60±2.22% and 6.60%	77.78±13.40% and 77.78%	95.37±2.87%	–	–
CN[C@H](CC(C)C)C(=O)N[C@H]1C(=O)N[C@@H](CC(N)=O)C(=O)N[C@H]2C(=O)N[C@H]3C(=O)N[C@H](C(=O)N[C@H](C(=O)O)c4cc(O)cc(O)c4-c4cc3ccc4O)[C@H](O)c3ccc(c(Cl)c3)Oc3cc2cc(c3O[C@@H]2O[C@H](CO)[C@@H](O)[C@H](O)[C@H]2O[C@H]2C[C@](C)(N)[C@H](O)[C@H](C)O2)Oc2ccc(cc2Cl)[C@H]1O [Vancomycin]	–	–	–	–	5.73±3.70% and 5.73%	92.58±2.01%
